In ChEMBL document CHEMBL4739717, “Methods of treating cartilage disorders through inhibition of clk and dyrk” (2020):
pEC50: −log10 of the molar value.

Assays:
[1] = Induction of chondrogenesis in human MSC assessed as incubated for 6 days by rhodamine B and Nile red staining based imaging analysis; type: functional; settings: bmmsc
[2] = Induction of chondrogenesis in human MSC assessed as maximum activity at 300 nM incubated for 6 days by rhodamine B and Nile red staining based imaging analysis relative to control; type: functional; settings: BMMSC, 144 h, time 6 day
[3] = Effect on Wnt signaling pathway in human SW480 cells harbouring TCF/LEF luciferase reporter gene and SP5-Luc reporter gene incubated for 36 to 48 hrs by luminescence assay; type: cell-based
[4] = target: Dual specificity tyrosine-phosphorylation-regulated kinase 1A (Homo sapiens, UniProt Q13627); test: Inhibition of recombinant DYRK1A (unknown origin) using Ser/Thr 18 peptide as substrate incubated for 1 hr in presence of ATP by FRET assay

| SMILES | pEC50 [1] | pEC50 [3] | pEC50 [4] | Emax at 0.3 µM [2] |
| --- | --- | --- | --- | --- |
| CN(C)Cc1cncc(-c2cc3c(-c4nc5c(-c6cccc(F)c6)cccc5[nH]4)n[nH]c3cn2)c1 | 7.00 | 7.09 | 7.82 | 311% |
| CC(C)(C)C(=O)Nc1cncc(-c2cnc3[nH]nc(-c4nc5c(-c6ccoc6)cncc5[nH]4)c3c2)c1 | 7.52 | 7.15 | 7.92 | 144% |
| O=C(Nc1cncc(-c2cnc3[nH]nc(-c4cc5c(-c6cccnc6)cccc5[nH]4)c3c2)c1)C1CCC1 |  | 6.70 | 7.60 | 41.3% |
| CN(C)Cc1cncc(-c2ccc3[nH]nc(-c4cc5c(-c6cccc(F)c6)nccc5[nH]4)c3c2)c1 |  | 5.53 | 7.03 | 42% |
| O=C(Nc1cncc(-c2cnc3[nH]nc(-c4nc5c(-c6cccnc6)cncc5[nH]4)c3c2)c1)C1CC1 |  | 7.63 | 7.85 | 86.3% |
| O=C(Nc1cncc(-c2cnc3[nH]nc(-c4cc5c(N6CCCCC6)nccc5[nH]4)c3c2)c1)C1CC1 |  | 5.41 | 7.51 | 42.5% |
| O=C(Nc1cncc(-c2cnc3[nH]nc(-c4nc5c(-c6cccc(F)c6)cncc5[nH]4)c3c2)c1)N1CCOCC1 |  | 8.05 | 7.85 | 96.8% |
| COc1cncc(-c2ccc3[nH]nc(-c4cc5c(-c6ccoc6)nccc5[nH]4)c3c2)c1 |  | 6.19 | 7.46 | 35.5% |
| CC(C)Nc1cncc(-c2cnc3[nH]nc(-c4cc5c(N6CCCCC6)nccc5[nH]4)c3c2)c1 |  | 5.47 | 7.15 | 33.6% |
| CCCC(=O)Nc1cncc(-c2cnc3[nH]nc(-c4nc5c(-c6ccccc6F)cncc5[nH]4)c3c2)c1 |  | 8.10 | 7.15 | 82.8% |
| CN1CCN(c2nccc3[nH]c(-c4n[nH]c5ccc(-c6cncc(NC(=O)CC7CCNCC7)c6)cc45)cc23)CC1 |  | < 5.00 | 7.60 | 42.8% |
| CN1CCN(c2ccnc3[nH]c(-c4n[nH]c5ncc(-c6cn[nH]c6)cc45)cc23)CC1 |  | < 5.00 | 7.46 | 20.1% |
| Cc1ccncc1-c1cnc2[nH]nc(-c3cc4c(-c5cccnc5)cncc4[nH]3)c2c1 |  | 5.65 | 7.77 | 17.4% |
| CC(C)(C)C(=O)Nc1cncc(-c2cc3c(-c4nc5c(-c6ccc(F)s6)nccc5[nH]4)n[nH]c3cn2)c1 |  | 7.45 | 7.52 | 40.9% |
| CC(C)(C)C(=O)Nc1cncc(-c2cnc3[nH]nc(-c4cc5c(-c6ccncc6)cncc5[nH]4)c3c2)c1 |  | < 5.00 | 8.30 | 33.6% |
| Nc1cncc(-c2ccc3[nH]nc(-c4cc5c(-c6ccccc6F)ccnc5[nH]4)c3c2)c1 |  | 6.88 | 7.47 | 23.5% |
| CC(C)C(=O)Nc1cncc(-c2cc3c(-c4cc5c(-c6cccc(F)c6)cncc5[nH]4)n[nH]c3cn2)c1 |  | 5.76 | 7.19 | 42.2% |
| CC(C)C(=O)Nc1cncc(-c2cc3c(-c4cc5c(-c6ccncc6)nccc5[nH]4)n[nH]c3cn2)c1 |  | < 5.00 | 7.35 | 32.1% |

Continued, in another order:

| pEC50 [1] | pEC50 [3] | pEC50 [4] | SMILES | Emax at 0.3 µM [2] |
| --- | --- | --- | --- | --- |
| 7.52 | 8.15 |  | CC1CCN(Cc2cncc(-c3ccc4[nH]nc(C(=O)Nc5cccnc5)c4c3)c2)CC1 | 94.4% |
| 6.52 | 7.35 | 8.52 | FC1(F)CCN(Cc2cncc(-c3ccc4[nH]nc(-c5cc6cnccc6[nH]5)c4n3)c2)C1 | 134% |
| 6.52 | 5.82 | 7.55 | c1cncc(-c2ccc3[nH]nc(-c4nc5c(-c6cccnc6)ccnc5[nH]4)c3n2)c1 | 94.6% |
| 6.52 | 7.23 |  | Cc1cncc(NC(=O)c2n[nH]c3ccc(-c4cncc(CN5CCCCC5)c4)cc23)c1 | 68.3% |
| 7.52 | 7.46 | 7.12 | c1cncc(-c2ccc3[nH]nc(-c4nc5c(-c6cccnc6)cncc5[nH]4)c3c2)c1 | 159% |
| 6.52 | 5.45 | 7.37 | c1csc(-c2ccnc3[nH]c(-c4n[nH]c5ccc(-c6cncc(OC7CCNCC7)c6)nc45)cc23)c1 | 51.4% |
| 8.00 | < 5.00 | 8.15 | Nc1cncc(-c2ccc3[nH]nc(-c4nc5c(-c6ccccc6F)cncc5[nH]4)c3n2)c1 | 98.2% |
| 7.00 | 8.30 |  | COc1ccc(NC(=O)c2n[nH]c3ccc(-c4cncc(CN5CCC(F)(F)C5)c4)cc23)cn1 | 72.2% |
|  | 5.83 | 8.52 | CCCCC(=O)Nc1cncc(-c2cnc3[nH]nc(-c4cc5cnccc5[nH]4)c3c2)c1 | 30.8% |
|  | 5.98 | 7.57 | CN(C)Cc1cncc(-c2ccc3[nH]nc(-c4cc5c(-c6ccncc6)cncc5[nH]4)c3c2)c1 | 17.8% |
|  | 5.41 | 8.00 | CN1CCN(c2ccnc3[nH]c(-c4n[nH]c5ccc(-c6cncc(NC(=O)CC(C)(C)C)c6)nc45)cc23)CC1 | 30.3% |
|  | 6.22 | 8.70 | CC(C)(C)CC(=O)Nc1cncc(-c2cnc3[nH]nc(-c4cc5cnccc5[nH]4)c3c2)c1 | 7.07% |
| 7.52 | 8.40 |  | CN1CCN(c2ccc(NC(=O)c3n[nH]c4ccc(-c5cncc(CN6CCC(F)(F)C6)c5)cc34)cn2)CC1 | 80.9% |
|  | < 5.00 | 7.70 | CC(C)Nc1cncc(-c2ccc3[nH]nc(-c4cc5c(-c6cccnc6)ccnc5[nH]4)c3c2)c1 | 45.5% |
|  | 5.41 | 7.52 | FC1(F)CCN(Cc2cncc(-c3ccc4[nH]nc(-c5cc6c(-c7cccnc7)cncc6[nH]5)c4n3)c2)C1 | 23.3% |
|  | 6.22 | 7.64 | CC(C)CC(=O)Nc1cncc(-c2ccc3[nH]nc(-c4cc5c(-c6ccccc6F)nccc5[nH]4)c3n2)c1 | 36.3% |
|  | 5.11 | 7.82 | CC(C)C(=O)Nc1cncc(-c2ccc3[nH]nc(-c4cc5c(N6CCN(C)CC6)nccc5[nH]4)c3c2)c1 | 21% |
|  | 8.10 | 7.38 | O=C(Nc1cncc(-c2ccc3[nH]nc(-c4nc5ccncc5[nH]4)c3c2)c1)C1CC1 | 93.8% |
|  | < 5.00 | 7.15 | CN(C)Cc1cncc(-c2cc3c(-c4cc5c(-c6ccncc6)ccnc5[nH]4)n[nH]c3cn2)c1 | 33.4% |
|  | 6.02 | 8.70 | CCC(=O)Nc1cncc(-c2cnc3[nH]nc(-c4cc5cnccc5[nH]4)c3c2)c1 | 16.9% |
|  | 7.28 | 8.70 | CN1CCN(c2cncc3[nH]c(-c4n[nH]c5ccc(-c6cccnc6)cc45)nc23)CC1 | 80.6% |
|  | 5.82 | 7.89 | FC1(F)CCN(Cc2cncc(-c3cnc4[nH]nc(-c5cc6c(-c7ccncc7)cncc6[nH]5)c4c3)c2)C1 | 36.5% |
|  | < 5.00 | 7.82 | c1cncc(-c2ccnc3[nH]c(-c4n[nH]c5ncc(-c6cncc(CN7CCCCC7)c6)cc45)cc23)c1 | 43.9% |
